The results in this text go back to patent US20220168271A1, “COMPOSITIONS AND METHODS FOR INCREASING T CELL FUNCTION” (SOCIETE DES PRODUITS NESTLE S.A., priority 2019, published 2022).

Assay [1] has as its system OTI-1 CD8+ T-cells. As to the kind of experiment: Seahorse mitochondrial stress analysis, spare respiratory capacity (metabolic potential). Type of assay: cell-based, mouse. The note with it: day 7, negative control = effector T cells expanded with IL-2/7, concentrations as in the 1st table/the 2nd table. The procedure:
(§1) Unless specified otherwise, cell media were supplemented with agents or combinations of agents at the following concentrations:
(§2) 750 μL of agent/agent combination supplementation solutions (described above) were added to corresponding wells of a flat bottom 24-well plate.
(§3) The total splenic cells were then resuspended in RPMI completed media (+10% FBS, Sodium Pyruvate), including IL-2 (final concentration 100 U/mL) and SIINFEKL peptide (final concentration 250 nM) at 1.6×10^6 cells/mL.
(§4) The cells from each condition (after day 3) were counted and resuspended in RPMI completed media (+10% FBS, Sodium Pyruvate) at 1.2×10^6 cells/mL.
(§5) The cells were then distributed in 96-well or 12-well plates at 5×10^4 cells/well (96-well plate) and 6×10^6 cells/well (12-well plate).
(§6) Agent/agent combination supplementation solutions (described above) or complete media were added to corresponding wells in addition to either: (a) IL-2 (at a final concentration of 100 U/mL) and IL-7 (at a final concentration of 10 U/mL) (to keep the effector phenotype); or (b) IL-15 (at a final concentration of 10 U/mL) (to induce differentiation into memory precursor effector cells (MPECs) as a positive control.
(§7) The cells were then incubated at 37° C. for 4 days before proceeding with FACS staining or Seahorse analysis.
Cells were harvested from 12-well or 6-well plates.
A probe plate containing cartridge pores (Seahorse XFe96 FluxPak) was prepared by adding 200 μL of Seahorse XF Calibrant solution (Agilent) to each well and incubating overnight at 37° C. (no CO2).
Residues were removed by transferring the cells to a 15 mL tube and a Pasteur pipette was added. 2 mL of Lympholyte M was slowly added to the Pasteur pipette, and the Ficoll was allowed to slowly release below the cells before the pipette was removed from the tube. The tube was the centrifuged at 1500 rpm, 10 min at room temperature without braking.
5 mL of fresh uncompleted RPMI was added to the cells, and the mixture was centrifuged at 1500 rpm, 5 min at room temperature. The cells were then resuspended in 1 mL of RPMI completed media (+10% FBS, Sodium Pyruvate).
Subsequently, the cells were counted before being resuspended at 5×10^6 cells/mL in completed XF Medium (non-buffered RPMI, with glucose (25 mM), L-glutamine (2 mM) and sodium pyruvate (1 mM), pH 7.3).
40 μL of cells were then distributed in corresponding pre-determined Poly-D-Lysine coated wells of a cell culture plate (V3-PS TC-Treated) and the plate was centrifuged at 400 g, 5 min.
140 μL of XF Medium was carefully added to each well, and the plate was incubated at 37° C., 30-60 min (no CO2). During this time modulator solutions (Oligomycin 10 μM; FCCP 15 μM; Rotenone/Antimycin A 1 μM/1 μg/mL) were loaded into the previously prepared cartridge pores: 20 μL of Oligomycin in pore A; 22 μL of FCCP in pore B; and 24 μL of Rotenone/Antimycin A in pore C) and the cartridge was incubated at 37° C. (no CO2).
Mitochondrial stress analysis was then carried out using the Wave software following the manufacturer instructions.
After data acquisition, oxygen consumption rates were extracted and spare respiratory capacity calculated following the manufacturer's instructions.
(§8) To study the enhancement of T cell immune fitness the in vitro studies focused on the development of T cells with long term and resting phenotypes, which could be equated to the development of memory cell characteristics. The metabolic intervention outcomes were evaluated using: • Cell phenotype: assessment by FACS of the cell surface expression of the specific marker CD62L, which is higher on resting T-cells. • Cell function: assessment using metabolic potential measurement (as per the Spare Respiratory Capacity) by means of an assay assessing cell respiration upon mitochondrial stress (Seahorse technology), which is higher in memory, quiescent cells.

The test system of assay [2] is OTI-1 CD8+ T-cells. As to the kind of experiment: CD62L surface expression by FACS on in vitro stimulated CD8+ T cells. Type of assay: cell-based, mouse. The following applies: FACS median fluorescence, day 7; negative control = effector T cells expanded with IL-2/7; concentrations as in the 1st table/the 2nd table. The procedure: as §1
An OTI-1 mouse was sacrifice and dissected to extract the spleen. Under sterile conditions, the spleen was disrupted over a […] filter. PBS was then added to the disrupted spleen to a volume of 30 mL, and the mixture was centrifuged (1500 rpm, 5 min at room temperature).
The PBS supernatant was discarded and the cells resuspended in 2 mL of 1× red blood cell lysis buffer for 3 min. 15 mL of PBS was then added to wash the cells, and the mixture was centrifuged (1500 rpm, 5 min at room temperature).
The PBS supernatant was discarded and the cells resuspended in fresh RPMI completed media (+10% FBS, Sodium Pyruvate) before counting.
as §2, §3
750 μL of cell solution (2×) were added to each well. Thus, the cell count was 1200000 cells per well at 0.8×10^6 cells/mL.
The cells were then incubated at 37° C. for 3 days.
The specific activation of OTI-1 T-cells is due to the SIINFEKL peptide. Therefore after 3 days, mostly (if not only) CD8 T-cells will have proliferated and show an activation profile.
as §4, §5, §6
Extra media was added at day 5 to the wells with fresh agents and cytokines.
as §7
Cells were harvest from the 96-well plates and centrifuged (2000 rpm, 2 min at 4° C.) before washing with 150 μL of PBS.
(§9) The cells were then resuspended in 60 μL of LiveDead dye solution (1:500 dilution in PBS) and incubated for 15 min on ice. Cells were then centrifuged (2000 rpm, 2 min at 4° C.) before washing with 150 μL of PBS and then 200 μL of FACS buffer (PBS+2% FBS).
Subsequently, the cells were resuspended in 60 μL of stain solution (FACS buffer+antibodies specific for CD45.1, CD62L and CD8), and incubated for 15 min on ice.
(§10) Cells were then centrifuged (2000 rpm, 2 min at 4° C.) before washing with 150 μL of FACS buffer, and then resuspended in 150 μL of FACS buffer before analysis by FACS (BD™ LSR II).
After acquisition, FACS data were analysed using the FlowJo treestar software and median fluorescence for CD62L was extracted.
as §8
(A flow cytometer gives signals particle by particle.)

A further assay deals with OTI-1 T cells. Briefly: Adoptive transfer of pre-treated OTI-1 T cells into Listeria monocytogenes (Lm-OVA) infected mice, FACS of blood and spleen after 35 days. Type of assay: in vivo, C57BL/6 mice. The following applies: for cell frequency: percentage of transferred cells (CD45.1) from total CD8 positive T cells, compared with control / percentage of memory cells (CD27 and CD43 positive) from CD8 positive transferred cells / percentage of MPECs (CD127 positive, KLRG1 negative) from CD8 positive transferred cells: 35 days of infection; for frequency levels of transferred cells compared with positive control (Phenformin treatment): Phenformin 100 μM pre-treatment. The procedure:
The metabolic intervention consisted of cell medium supplementation as described above for the in vitro procedure) using the following agent concentrations, before adoptive transfer of the cells into infected mice.
For the in vivo assessment, the positive control was obtained by pre-treating the OTI-1 CD8 T-cells in vitro with Phenformin (100 μM) following the same procedure as for the other agents). Phenformin is known to induce a metabolic switch in cells essential for the development of long-term T-cells.
C57BL/6 mice were injected intravenously with 2000 CFU of Listeria monocytogenes bacteria expressing OVA at a concentration of 1×10^4 CFU/mL (Lm-OVA; harvested in Brain Heart Infusion media without antibiotics until OD reached 0.3) in 200 μL of PBS to induce a Listeria monocytogenes infection.
Treated OTI-1 T-cells (specific for OVA recognition) were provided from day 7 of the procedure described above in Example 1 at a concentration of 1×10^5 cells/mL in PBS. Residues were cleaned from the T cells using Lympholyte M as described above.
Adoptive transfer of OTI-1 T cells was carried out by intravenously injecting each mouse with 1×10^4 cells in 200 μL of PBS.
After 35 days, the mice were sacrificed to collect blood and spleens for further surface and intracellular FACs analysis.
Harvested blood or total spleen cells were subjected to red blood cell lysis in a 96-well plate and then centrifuged (2000 rpm, 2 min at 4° C.) before washing with 150 μL of PBS.
as §9
Subsequently, the cells were resuspended in 60 μL of stain solution (FACS buffer+antibodies specific for CD45.1, CD62L, CD8, CD127, KLRG1, CD27, CD43 and CXCR3), and incubated for 15 min on ice.
as §10
After acquisition, FACS data were analysed using the FlowJo treestar software and percentages of gated cells for targeted markers were extracted. […]
The cells were the centrifuged (2000 rpm, 2 min at 4° C.) and washed with 150 μL of 1× Permeabilization buffer (Intracellular staining kit (BD™)), and then centrifuged (2000 rpm, 2 min at 4° C.) and washed with 200 μL of FACS buffer. 200 μL of FACS buffer was then added and the mixture stored at 4° C. till analysis by FACS (BD™ LSR II) either the same or following day.
After acquisition, data were analysed using the FlowJo treestar software and percentages of gated cells for the targeted markers were extracted.
To study the enhancement of T cell immune fitness the in vivo studies focused on the development of T cells with long term and resting phenotypes after treatment and adoptive transfer into mice simultaneously infected with Listeria monocytogenes. The metabolic intervention outcomes were evaluated after 35 days of infection using: • Cell frequency: assessment by FACS of the percentage of transferred cells (CD45.1) from total CD8 positive T cells in the mice blood and spleen. • Cell phenotype: assessment by FACS of the percentage of cells from the blood and spleen that developed memory patterns from total CD8 positive transferred cells (CD45.1): either memory precursor effector cells (MPECs; both positive for CD127 and negative for KLRG1 markers) or full memory cells (positive for both CD27 and CD43 markers). • Cell function: assessment by FACS of the percentage of transferred cells (CD45.1) from total CD8 positive T cells in the mice spleen expressing the functional surface marker CXCR3 and able to produce both IFNγ and TNFα cytokines by intracellular staining.

`NCC(=O)O` [Gly, Glycine]: the “metabolic potential (spare respiratory capacity) compared with negative control” value in the assay with OTI-1 CD8+ T-cells [1] is listed as “higher”. Besides, the “CD62L surface expression level compared with negative control” value in the assay with OTI-1 CD8+ T-cells [2] is on record as “higher”.

As to Vitamin B12, the “metabolic potential (spare respiratory capacity) compared with negative control” value in the assay with OTI-1 CD8+ T-cells [1] is reported as “higher”. Also, the “CD62L surface expression level compared with negative control” value with OTI-1 CD8+ T-cells [2] is reported as “higher”. In addition, in the assay with OTI-1 T cells (blood), the “cell frequency: percentage of transferred cells (CD45.1) from total CD8 positive T cells, compared with control” value (from here on “cell frequency: percentage”) is “higher”; the “percentage of memory cells (CD27 and CD43 positive) from CD8 positive transferred cells” value (shortened to “percentage of memory cells”) is on record as “higher”; the “frequency levels of transferred cells compared with positive control (Phenformin treatment)” value was “higher”. Moreover, in the assay on OTI-1 T cells (spleen), the “cell frequency: percentage” value is on record as “higher”; the “percentage of MPECs (CD127 positive, KLRG1 negative) from CD8 positive transferred cells” value (from here on “percentage of MPECs”) was “higher”; the “percentage of memory cells” value is recorded as “higher”; the “frequency levels of transferred cells compared with positive control (Phenformin treatment)” value is “higher”.

Regarding `O=c1oc2cc(O)ccc2c2ccc(O)cc12` [UroA, urolithin A (3,8-dihydroxyurolithin)], in the assay on OTI-1 CD8+ T-cells [1], the “metabolic potential (spare respiratory capacity) compared with negative control” value is given as “higher”. Also, in the assay with OTI-1 CD8+ T-cells [2], the “CD62L surface expression level compared with negative control” value is given as “higher”.

`NC(=O)C[C@H](N)C(=O)O` [Asn, Asparagine]: the “metabolic potential (spare respiratory capacity) compared with negative control” value in the assay on OTI-1 CD8+ T-cells [1] was “higher”. Further, the “CD62L surface expression level compared with negative control” value in the assay on OTI-1 CD8+ T-cells [2] was “higher”.

As for `N[C@@H](CO)C(=O)O` [Ser, Serine], the “metabolic potential (spare respiratory capacity) compared with negative control” value in the assay on OTI-1 CD8+ T-cells [1] is listed as “higher”. In the assay with OTI-1 CD8+ T-cells [2], the “CD62L surface expression level compared with negative control” value is recorded as “higher”.

As to `[Cl][Mn][Cl]` [Mn, MnCl2], the “metabolic potential (spare respiratory capacity) compared with negative control” value in the assay with OTI-1 CD8+ T-cells [1] was “higher”. Also, the “CD62L surface expression level compared with negative control” value with OTI-1 CD8+ T-cells [2] is “higher”.

In the case of `NC(=O)c1ccc[n+]([C@@H]2O[C@H](CO)[C@@H](O)[C@H]2O)c1` [NR, Nicotinamide riboside], in the assay with OTI-1 CD8+ T-cells [1], the “metabolic potential (spare respiratory capacity) compared with negative control” value is on record as “higher”. Besides, the “CD62L surface expression level compared with negative control” value with OTI-1 CD8+ T-cells [2] was “higher”. In addition, in the assay with OTI-1 T cells (blood), the “cell frequency: percentage” value is recorded as “higher”; the “percentage of MPECs” value is listed as “higher”; the “percentage of memory cells” value was “higher”; the “frequency levels of transferred cells compared with positive control (Phenformin treatment)” value was “higher”. For the same compound, in the assay on OTI-1 T cells (spleen), the “cell frequency: percentage” value is reported as “higher”; the “percentage of MPECs” value was “higher”; the “percentage of memory cells” value was “higher”; the “frequency levels of transferred cells compared with positive control (Phenformin treatment)” value is “similar”.

Consider `N=C(N)NCCC[C@H](N)C(=O)O` [Arg, Arginine], for which the “metabolic potential (spare respiratory capacity) compared with negative control” value with OTI-1 CD8+ T-cells [1] is recorded as “higher”. Further, in the assay with OTI-1 CD8+ T-cells [2], the “CD62L surface expression level compared with negative control” value is given as “higher”. In addition, the “cell frequency: percentage” value in the assay with OTI-1 T cells (blood) is “higher”. Besides, in the assay with OTI-1 T cells (spleen), the “cell frequency: percentage” value is recorded as “higher”; the “percentage of memory cells” value is given as “higher”.
